According to ChEMBL document CHEMBL1129097, “1-benzyl-3-thioaryl-2-carboxyindoles as potent non-peptide endothelin antagonists” (Bioorg Med Chem Lett, 1996):

Key:
[1] = target: T1, Endothelin receptor type B (Homo sapiens, UniProt P24530); experiment: Affinity for human endothelin B receptor expressed in CHO-K1 cells.; format: cell-based
T1 sequence (P24530 whole entry): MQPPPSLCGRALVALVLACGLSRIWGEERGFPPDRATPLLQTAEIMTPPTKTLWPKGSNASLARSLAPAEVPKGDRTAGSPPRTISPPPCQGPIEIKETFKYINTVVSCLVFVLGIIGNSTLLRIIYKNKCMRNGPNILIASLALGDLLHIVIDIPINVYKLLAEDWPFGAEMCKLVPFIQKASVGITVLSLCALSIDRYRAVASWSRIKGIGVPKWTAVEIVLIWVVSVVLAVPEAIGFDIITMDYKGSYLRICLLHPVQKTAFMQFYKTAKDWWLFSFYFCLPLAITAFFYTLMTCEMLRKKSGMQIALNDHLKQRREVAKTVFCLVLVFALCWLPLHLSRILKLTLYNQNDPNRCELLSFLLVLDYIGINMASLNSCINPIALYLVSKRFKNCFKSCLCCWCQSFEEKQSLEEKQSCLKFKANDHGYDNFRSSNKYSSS

[2] = target: T2, Endothelin-1 receptor (Homo sapiens, UniProt P25101); experiment: Affinity for human endothelin A receptor expressed in Ltk cells.; format: cell-based
T2 sequence (P25101 whole entry): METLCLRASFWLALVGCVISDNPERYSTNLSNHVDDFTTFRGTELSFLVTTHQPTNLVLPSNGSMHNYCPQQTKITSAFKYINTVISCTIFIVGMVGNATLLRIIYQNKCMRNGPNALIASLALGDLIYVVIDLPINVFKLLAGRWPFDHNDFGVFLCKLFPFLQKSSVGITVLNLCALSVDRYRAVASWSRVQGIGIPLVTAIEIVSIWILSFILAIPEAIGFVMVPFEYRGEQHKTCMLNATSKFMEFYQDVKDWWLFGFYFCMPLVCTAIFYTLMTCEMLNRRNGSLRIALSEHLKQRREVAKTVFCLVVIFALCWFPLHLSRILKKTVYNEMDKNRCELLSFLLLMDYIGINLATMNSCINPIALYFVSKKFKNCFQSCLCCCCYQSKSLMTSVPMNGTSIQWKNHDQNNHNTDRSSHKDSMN

[3] = target: T3, Endothelin receptor, ET-A/ET-B (Homo sapiens, UniProt P24530+P25101); experiment: In vitro inhibition of ET-1 stimulated vasoconstriction in rabbit femoral artery.; format: functional, tissue-based, Oryctolagus cuniculus; settings: target entry is the homologue from another species
T3 sequence (P24530 whole entry): T1 sequence (P24530 whole entry)
T3 sequence (P25101 whole entry): T2 sequence (P25101 whole entry)

[4] = target: T1, Endothelin receptor type B; experiment: Inhibition of sarafotoxin-6c stimulated vasoconstriction in rabbit pulmonary artery.; format: functional, Oryctolagus cuniculus; settings: target entry is the homologue from another species; read-out: pA2 (converted)

Structure (SMILES)	IC50 [1]	IC50 [2]	pA2 [3]	Kb [4]
CC(C)Oc1c(C(=O)O)sc2ccc(OCc3ccccc3)cc12	> 100000 nM	8800 nM		
COc1cccc(Sc2c(C(=O)O)n(Cc3ccc4c(c3)OCO4)c3cc4c(cc23)OCO4)c1	760 nM			
COc1cccc(Sc2c(C(=O)O)sc3ccccc23)c1	> 25000 nM			
O=C(O)c1c(Sc2ccc3c(c2)OCO3)c2cc3c(cc2n1Cc1ccc2c(c1)OCO2)OCO3	420 nM	100 nM		
COc1ccc(Sc2c(C(=O)O)n(Cc3ccc4c(c3)OCO4)c3cc4c(cc23)OCO4)cc1OC		41 nM	6.3	631 nM
COc1cc2c(Sc3ccc4c(c3)OCO4)c(C(=O)O)n(Cc3ccc4c(c3)OCO4)c2cc1OCc1ccccc1	490 nM	620 nM		

Continued, in another order:

IC50 [1]	IC50 [2]	Structure (SMILES)	pA2 [3]	Kb [4]
870 nM	160 nM	COc1cccc(Sc2c(C(=O)O)n(Cc3ccccc3)c3cc(OC)c(OC)cc23)c1		
29000 nM		COc1cccc(Sc2c(C(=O)O)n(Cc3cc(OC)c4c(c3)OCO4)c3cc4c(cc23)OCO4)c1		
	86 nM	COc1cccc(Sc2c(C(=O)O)n(Cc3ccc4c(c3)OCO4)c3ccccc23)c1		
1600 nM	20000 nM	COc1cccc(Sc2c(C(=O)O)n(Cc3ccc4c(c3)OCO4)c3cc(OCc4ccccc4)c(OC)cc23)c1		
15000 nM		COc1cccc(Sc2c(C(=O)O)n(Cc3ccccc3)c3ccccc23)c1		
> 25000 nM		COc1cccc(Sc2c(C(=O)O)oc3ccccc23)c1		
> 2500 nM	> 2500 nM	COc1cc2c(Sc3cc(OC)c(OC)c(OC)c3)c(C(=O)O)n(Cc3ccc4c(c3)OCO4)c2cc1OCc1ccccc1		
